Measurements: patent US20100291086A1, “USE OF ESTROGEN AND ANDROGEN BINDING PROTEINS IN METHODS AND COMPOSITIONS FOR TREATING GYNAECOLOGICAL CANCERS” (priority 2007, published 2010)

Experiments:
[1] = women, same study; cited from earlier work
invasive breast cancer = conditions: women; cited from earlier work
LNCaP cells = assay: In vitro growth proliferation study, calcein uptake assay; type: cell-based, human; conditions: nilutamide 0.1 μM, 120 hours
Description: The effects of the polypeptide on the growth and proliferation of the cells was then assessed. […] In addition, LNCaP cells were also cultured in the presence of the non-steroidal antiandrogen nilutamide The human prostate cancer cell line, LNCaP was obtained from American Type Tissue Collection (ATCC) and was routinely cultured in growth medium containing phenol red RPMI 1640 (Invitrogen, Auckland, New Zealand) supplemented with 10% fetal bovine serum (FBS, GIBCO) and 1% antibiotic/antimycotic mixture (Invitrogen, Auckland, New Zealand). Cells were maintained at 37° C. in 5% CO2. […] In addition as control, 6 wells were treated with the nonsteroidal antiandrogen nilutamide (0.1 μM) as well as 6 wells with 10% charcoal stripped serum, to simulate steroid free conditions. After 120 hours in culture, cells were washed once with PBS and labelled with calcein ([…], Molecular Probes, Oregon, USA) at 1 mM final concentration in PBS. Calcein positive cells were detected using a FLUOstar OPTIMA plate reader (BMG Labtech, Victoria, Australia). Experiments were performed in 6 replicates for each treatment condition. Data are presented as mean±SEM unless otherwise indicated.

breast cancer = conditions: adjuvant tamoxifen for about 5 years, women with cancers expressing the estrogen receptor; cited from earlier work

Question: For `O=C(c1ccc(OCCN2CCCCC2)cc1)c1c(-c2ccc(O)cc2)sc2cc(O)ccc12` [Raloxifene], which “increase of risk of fatal stroke” value [1] is on record?
Answer: The value was 49%.

Question: And the “reduction of risk of invasive breast cancer” value (invasive breast cancer)?
Answer: The value was 44%.

Question: For `CC1(C)NC(=O)N(c2ccc([N+](=O)[O-])c(C(F)(F)F)c2)C1=O` [nilutamide], which “reduction of prostate cancer cell proliferation” value (LNCaP cells) is on record?
Answer: The value was 80%.

Question: For `CC/C(=C(\c1ccccc1)c1ccc(OCCN(C)C)cc1)c1ccccc1` [tamoxifen], which “reduction of annual breast cancer death rate” value (breast cancer) is on record?
Answer: Its value is 31%.
